Where two headings read alike, the source gives them in different places.
Assays:
wild type HIV-1 = assay: Antiviral activity against wild type HIV-1 in P4/R5 cells; assay type: cell-based; details: Human immunodeficiency virus 1, compound alone, read-out: EC50 against replication
AZT-resistant HIV-1 = assay: Antiviral activity against AZT-resistant HIV-1 in P4/R5 cells; assay type: cell-based
Experimental: P4/R5 cells are plated in 96-well culture dishes at a cell density of 3×10^3 cells/well in 100 μl DMEM/10% fetal bovine serum. In one set of plates, bisphosphonate variants are added (25μM final concentration in FIG. 6) to individual wells. In another identical set of plates, bisphosphonate variants are added along with specific concentrations of AZT (0.1 μM final concentration in FIG. 6). Each well is inoculated with AZT-resistant HIV (multiplicity of infection=1), and the cells are incubated at 37° C. for 48 hours. The cells are then washed and the extent of HIV infection is determined fluorometrically. The percent inhibition of HIV replication is calculated as [1-(fluorescence signal of cells infected in the presence of bisphosphonate divided by the fluorescence signal of cells infected in the absence of any drug)] multiplied by 100.

[1] = molecular target: TAM-mutant HIV-1 reverse transcriptase (UniProt P04585); assay type: biochemical; set-up: other: preferred BPH variants; details: read-out: Estimated IC50; preferred BPH variants; quantity inhibited not given
Experimental: (§1) An 18 nucleotide DNA oligonucleotide (“primer DNA”) of sequence 5′-[…]-3′ was 5′ end labeled using [y^32p]-ATP and T4 polynucleotide kinase. The labeled primer DNA was purified by polyacrylamide gel electrophoresis, and then annealed to a synthetic DNA oligonucleotide (“template DNA”) of the sequence 5′-[…] […]-3′, to form “template/primer DNA”. Template/primer DNA was then chain-terminated with AZTMP by incubating for 30 minutes at 37° C. with HIV-1 reverse transcriptase in 50 mM Tris-HCl, pH 7.8, containing 60 mM KCl, 10 mM MgCl2, and 100 μM AZTTP. The total incubation sample was then dried under reduced pressure and the [^32P]-labeled, 3′-AZTMP-terminated primer DNA (now 19 nucleotides in length) was purified by polyacrylamide gel electrophoresis. The purified [^32P]-labeled, 3′-AZTMP-terminated primer DNA was annealed to template DNA to form the nucleic acid excision substrate (termed “AZTMP-T/P”).
(§2) At various times thereafter, aliquots were removed and quenched by dilution into sequencing gel loading buffer (98% deionized formamide, 10 mM EDTA, and 1 mg/mL each of bromophenol blue and xylene cyanol). Samples were heated at 100° C. for 5 minutes then subjected to polyacylamide gel electrophoresis using 16% polyacrylamide/7 M urea gels. Electrophoretically resolved products were visualized and quantified by phosphorimaging analysis.
(§3) The [^32P]-labeled, 3′-AZTMP-terminated nucleic acid excision substrate (“AZTMP-T/P”) is made as described in Example 2. […] After 10 minutes (for reactions with ATP) or 5 minutes (for reactions with sodium pyrophosphate), the reactions are stopped by the addition of 2 volumes of sequencing gel loading buffer (98% deionized formamide, 10 mM EDTA, and 1 mg/ml each of bromophenol blue and xylene cyanol). An identical control reaction in which RT is omitted is also carried out simultaneously. Samples are heated at 100° C. for 5 minutes then subjected to polyacylamide gel electrophoresis using 16% polyacrylamide/7 M urea gels. Electrophoretically resolved products are visualized and quantified by phosphorimaging analysis. The percent excision is defined by the amount of the 19 nucleotide [^32P]-labeled, 3′-AZTMP-terminated primer DNA in the sample divided by the amount of the 19 nucleotide [^32P]-labeled, 3′-AZTMP-terminated primer DNA in the control, multiplied by 100.

[2] = molecular target: TAM-mutant HIV-1 reverse transcriptase (UniProt P04585); assay type: biochemical; set-up: AZT-terminated DNA that had undergone excision; other: 20 micromolar 218A, 3 mM ATP, after 10 minutes; 65% without bisp; other: 5 micromolar bisphosphonate, 3 mM ATP, after 10 min; 65% without; details: for % Inhibition of AZT excision: BPH concentration not given
Experimental: as §1, §2, §3

Compound	IC50 [1]	other results
Cc1cn([C@H]2C[C@H](N=[N+]=[N-])[C@@H](CO)O2)c(=O)[nH]c1=O [AZT, 3′-azido-3′-deoxythymidine]	–	EC50 (wild type HIV-1): ~0.14 µM; EC50 (AZT-resistant HIV-1; Human immunodeficiency virus 1, P4/R5, read-out: EC50 of AZT in the presence of 218A): > 0.025 µM; inhibition at 0.1 µM (AZT-resistant HIV-1; Human immunodeficiency virus 1, P4/R5, 0.1 μM final concentration, alone, 48 hours, FIG. 6, read-out: percent inhibition of HIV replication): 2%; EC50 (AZT-resistant HIV-1; Human immunodeficiency virus 1, compound alone, P4/R5 cells, read-out: EC50 against replication): ~1.2 µM
O=P(O)(O)C(Nc1ccc(Br)cn1)P(=O)(O)O [Compound 48B]	3.4 µM	–
O=P(O)(O)C(Nc1ccc2c(c1)CCC2)P(=O)(O)O [Compound 215A]	4.5 µM	% Inhibition of AZT excision [2]: 75%
CCn1c2ccccc2c2cc(NC(P(=O)(O)O)P(=O)(O)O)ccc21 [Compound 228A]	4.1 µM	% Inhibition of AZT excision [2]: 60%
O=P(O)(O)C(Nc1ccc(Cl)cc1Cl)P(=O)(O)O [Compound 244A]	8 µM	–
CC(C)c1cccc(NC(P(=O)(O)O)P(=O)(O)O)c1 [Compound 248A]	3.7 µM	% Inhibition of AZT excision [2]: 59%
O=P(O)(O)C(O)(Cc1cccc(C(F)(F)F)c1)P(=O)(O)O [Compound 250A]	2.9 µM	% Inhibition of AZT excision [2]: 68%
O=P(O)(O)C(O)(Cc1cccc(I)c1)P(=O)(O)O [Compound 251A]	3.4 µM	–
O=P(O)(O)C(O)(Cc1cccc(Cl)c1)P(=O)(O)O [Compound 253A]	3.1 µM	% Inhibition of AZT excision [2]: 70%
O=P(O)(O)C(O)(Cc1cccc(Br)c1)P(=O)(O)O [Compound 255A]	1.8 µM	% Inhibition of AZT excision [2]: 76%
O=[N+]([O-])c1cccc(CC(O)(P(=O)(O)O)P(=O)(O)O)c1 [Compound 256A]	2.5 µM	% Inhibition of AZT excision [2]: 66%
O=P(O)(O)C(O)(Cc1cccc2ccccc12)P(=O)(O)O [Compound 257A]	1.35 µM	–
O=P(O)(O)C(Nc1cccc(Cc2ccccc2)c1)P(=O)(O)O [Compound 262A]	4.2 µM	% Inhibition of AZT excision [2]: 66%
O=P(O)(O)C(O)(Cc1cccc(I)c1)P(=O)(O)O [Compound 279A]	1.1 µM	–
O=P(O)(O)C(Nc1cccc(CO)c1)P(=O)(O)O [Compound 280A]	7.9 µM	–
COCc1cccc(NC(P(=O)(O)O)P(=O)(O)O)c1 [Compound 281A]	9.5 µM	–
CN(C)Cc1cccc(CC(O)(P(=O)(O)O)P(=O)(O)O)c1 [Compound 289A]	8.3 µM	–
O=P(O)(O)C(Cn1cnc2ccccc21)P(=O)(O)O [Compound 298A]	13.5 µM	–
O=P(O)(O)C(Nc1cccc(Br)c1)P(=O)(O)O [Compound 302A]	1 µM	–
O=[N+]([O-])c1cccc(NC(P(=O)(O)O)P(=O)(O)O)c1 [Compound 304A]	2.7 µM	–
CC(C)CCNCC(P(=O)(O)O)P(=O)(O)O [Compound 311A]	15.5 µM	–

Compound	IC50 [1]	other results
O=P(O)(O)C(CNc1cccc(-c2ccccc2)c1)P(=O)(O)O [Compound 312A]	11.3 µM	–
O=P(O)(O)C(O)(Cc1cccc(-c2ccc(F)cc2)c1)P(=O)(O)O [Compound 313A]	1.9 µM	–
O=P(O)(O)C(O)(Cc1cccc(-c2ccc(Cl)cc2)c1)P(=O)(O)O [Compound 314A]	0.9 µM	–
COc1ccc(-c2cccc(CC(O)(P(=O)(O)O)P(=O)(O)O)c2)cc1 [Compound 315A]	2.4 µM	–
O=P(O)(O)C(Nc1cccc(-c2ccc(F)cc2F)c1)P(=O)(O)O [Compound 316A]	3.9 µM	–
O=P(O)(O)C(Nc1cccc(-c2cc(F)cc(F)c2)c1)P(=O)(O)O [Compound 317A]	2.1 µM	–
O=P(O)(O)C(O)(Cc1ccc(-c2ccc(F)cc2)cc1)P(=O)(O)O [Compound 325A]	2.9 µM	–
O=P(O)(O)C(O)(Cc1ccc(-c2ccc(Cl)cc2)cc1)P(=O)(O)O [Compound 326A]	3.9 µM	–
O=P(O)(O)C(Nc1cccc(-c2ccc(F)c(F)c2)c1)P(=O)(O)O [Compound 327A]	2.1 µM	–
O=P(O)(O)C(O)(CC12CC3CC(CC(C3)C1)C2)P(=O)(O)O [Compound 329A]	4.6 µM	–
O=P(O)(O)C(CNc1ccc(-c2ccccc2)cc1)P(=O)(O)O [Compound 331A]	4.6 µM	–
O=P(O)(O)C(Nc1ccc(Cc2ccccc2)cc1)P(=O)(O)O [Compound 332A]	3.5 µM	–
COc1ccc(-c2ccc(CC(O)(P(=O)(O)O)P(=O)(O)O)cc2)cc1 [Compound 333A]	5.2 µM	–
O=P(O)(O)C(O)(Cc1cccc(-c2cc(F)ccc2F)c1)P(=O)(O)O [Compound 334A]	1.5 µM	–
O=P(O)(O)C(O)(Cc1cccc(-c2ccc(F)c(F)c2)c1)P(=O)(O)O [Compound 336A]	1 µM	–
O=P(O)(O)C(O)(Cc1cccc(Oc2ccccc2)c1)P(=O)(O)O [Compound 339A]	3.3 µM	–
Cc1ccc(NC(P(=O)(O)O)P(=O)(O)O)cc1-c1ccccc1 [Compound 340A]	5 µM	–
COc1cccc(CC(O)(P(=O)(O)O)P(=O)(O)O)c1 [Compound 341A]	5.4 µM	–
O=P(O)(O)C(O)(Cc1ccc(Cl)c(Cl)c1)P(=O)(O)O [Compound 342A]	0.4 µM	–
O=C(O)P(=O)(O)O [Foscarnet, phosphonoformic acid, reference compound]	–	concentration dependence of inhibition of ATP-mediated excision of AZT ([2]; increasing concentration, FIG. 3): did not inhibit ATP-mediated excision of AZT as well as 218A
